From patent publication US20230139171A1 (SITA Information Networking Computing UK Limited, priority 2019, published 2023) come the findings set out here.

Common to all, as to type: cell-based
One assay addresses T1, human TLR7 (Homo sapiens, UniProt Q9NYK1).
T1 construct: host or cells: HEK-Blue cells
T1 sequence (Q9NYK1 27-1049): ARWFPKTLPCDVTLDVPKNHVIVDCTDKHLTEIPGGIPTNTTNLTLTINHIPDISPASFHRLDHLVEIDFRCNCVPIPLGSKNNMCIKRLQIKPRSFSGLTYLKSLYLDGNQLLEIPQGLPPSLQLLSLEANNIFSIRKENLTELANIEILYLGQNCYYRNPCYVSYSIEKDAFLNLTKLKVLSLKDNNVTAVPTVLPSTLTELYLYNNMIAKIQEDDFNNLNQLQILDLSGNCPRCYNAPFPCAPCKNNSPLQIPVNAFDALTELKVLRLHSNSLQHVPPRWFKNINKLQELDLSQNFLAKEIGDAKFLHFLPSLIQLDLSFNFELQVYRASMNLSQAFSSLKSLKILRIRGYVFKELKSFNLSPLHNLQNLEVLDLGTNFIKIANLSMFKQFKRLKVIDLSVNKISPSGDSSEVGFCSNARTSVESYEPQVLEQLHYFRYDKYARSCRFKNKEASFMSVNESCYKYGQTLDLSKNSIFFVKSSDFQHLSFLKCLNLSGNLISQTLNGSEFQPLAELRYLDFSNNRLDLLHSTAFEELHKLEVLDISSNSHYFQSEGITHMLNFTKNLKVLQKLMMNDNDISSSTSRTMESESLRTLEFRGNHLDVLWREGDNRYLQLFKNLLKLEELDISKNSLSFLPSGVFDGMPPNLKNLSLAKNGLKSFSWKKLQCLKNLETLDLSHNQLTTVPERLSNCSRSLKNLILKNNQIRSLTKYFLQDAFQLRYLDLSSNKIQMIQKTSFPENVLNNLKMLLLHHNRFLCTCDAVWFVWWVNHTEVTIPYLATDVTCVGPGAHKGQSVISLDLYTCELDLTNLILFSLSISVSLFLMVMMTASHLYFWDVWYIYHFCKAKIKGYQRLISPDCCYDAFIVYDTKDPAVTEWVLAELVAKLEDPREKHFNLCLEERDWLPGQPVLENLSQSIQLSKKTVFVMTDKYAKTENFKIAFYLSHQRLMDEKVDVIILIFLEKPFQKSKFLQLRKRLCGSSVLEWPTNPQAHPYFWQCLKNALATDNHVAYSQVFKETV
Put plainly: TLR7 inhibition reporter assay (HEK-Blue cells, SEAP reporter, gardiquimod stimulation). The conditions noted are these: HEK-Blue cells overexpressing human TLR7, SEAP reporter, gardiquimod 7.5 μM; read-out: TLR7 IC50. In a few lines: (§1)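 Agonists used: gardiquimod 7.5 μM (TLR7), R848 15.9 μM (TLR8), ODN2006 5 nM (TLR9), added after 30 min room-temperature compound pre-treatment (0.05 nM–50 μM) of receptor-overexpressing HEK-Blue cells. SEAP reporter (NF-κB/AP-1 driven) read after 22 h at 37 °C; inhibition scaled between agonist+DMSO and reference-inhibitor wells.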
For orientation: In a reporter assay the amount or activity of a reporter protein is the signal.

For the next assay, the target named is T2, human TLR8 (Homo sapiens, UniProt Q9NR97).
T2 construct: host or cells: HEK-Blue cells
T2 sequence (Q9NR97 27-1041): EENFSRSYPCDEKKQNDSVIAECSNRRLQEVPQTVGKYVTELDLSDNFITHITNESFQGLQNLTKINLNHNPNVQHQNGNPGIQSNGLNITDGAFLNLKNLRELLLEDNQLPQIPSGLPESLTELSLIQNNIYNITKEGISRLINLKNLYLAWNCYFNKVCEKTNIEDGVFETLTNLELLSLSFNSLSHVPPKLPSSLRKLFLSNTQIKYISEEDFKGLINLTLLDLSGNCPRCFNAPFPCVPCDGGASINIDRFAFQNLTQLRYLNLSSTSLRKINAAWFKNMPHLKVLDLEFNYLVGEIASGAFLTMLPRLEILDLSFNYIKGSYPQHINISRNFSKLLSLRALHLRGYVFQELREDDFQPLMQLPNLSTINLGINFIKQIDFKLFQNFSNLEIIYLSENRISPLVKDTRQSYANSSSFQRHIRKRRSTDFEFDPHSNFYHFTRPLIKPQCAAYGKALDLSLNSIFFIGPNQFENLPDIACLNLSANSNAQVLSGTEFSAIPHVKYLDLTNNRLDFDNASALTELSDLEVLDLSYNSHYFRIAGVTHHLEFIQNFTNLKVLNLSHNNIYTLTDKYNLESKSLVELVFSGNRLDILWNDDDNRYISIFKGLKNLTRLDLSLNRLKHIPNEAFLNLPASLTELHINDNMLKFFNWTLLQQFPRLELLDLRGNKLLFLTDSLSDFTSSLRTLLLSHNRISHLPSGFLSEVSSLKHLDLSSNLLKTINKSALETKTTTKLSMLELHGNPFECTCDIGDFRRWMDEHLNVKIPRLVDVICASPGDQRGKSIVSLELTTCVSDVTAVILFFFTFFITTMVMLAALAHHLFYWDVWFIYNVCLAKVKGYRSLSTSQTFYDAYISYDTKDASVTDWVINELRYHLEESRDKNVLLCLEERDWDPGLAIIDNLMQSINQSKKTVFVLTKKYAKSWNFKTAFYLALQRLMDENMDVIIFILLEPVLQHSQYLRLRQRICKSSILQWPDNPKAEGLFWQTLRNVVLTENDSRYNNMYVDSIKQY
The assay is described as follows: TLR8 inhibition reporter assay (HEK-Blue cells, SEAP reporter, R848 stimulation). The note with it: HEK-Blue cells overexpressing human TLR8, SEAP reporter, R848 15.9 μM; read-out: TLR8 IC50. In a few lines: as §1

Another assay has as its target T3, human TLR9 (Homo sapiens, UniProt Q9NR96).
T3 construct: host or cells: HEK-Blue cells
T3 sequence (Q9NR96 26-1032): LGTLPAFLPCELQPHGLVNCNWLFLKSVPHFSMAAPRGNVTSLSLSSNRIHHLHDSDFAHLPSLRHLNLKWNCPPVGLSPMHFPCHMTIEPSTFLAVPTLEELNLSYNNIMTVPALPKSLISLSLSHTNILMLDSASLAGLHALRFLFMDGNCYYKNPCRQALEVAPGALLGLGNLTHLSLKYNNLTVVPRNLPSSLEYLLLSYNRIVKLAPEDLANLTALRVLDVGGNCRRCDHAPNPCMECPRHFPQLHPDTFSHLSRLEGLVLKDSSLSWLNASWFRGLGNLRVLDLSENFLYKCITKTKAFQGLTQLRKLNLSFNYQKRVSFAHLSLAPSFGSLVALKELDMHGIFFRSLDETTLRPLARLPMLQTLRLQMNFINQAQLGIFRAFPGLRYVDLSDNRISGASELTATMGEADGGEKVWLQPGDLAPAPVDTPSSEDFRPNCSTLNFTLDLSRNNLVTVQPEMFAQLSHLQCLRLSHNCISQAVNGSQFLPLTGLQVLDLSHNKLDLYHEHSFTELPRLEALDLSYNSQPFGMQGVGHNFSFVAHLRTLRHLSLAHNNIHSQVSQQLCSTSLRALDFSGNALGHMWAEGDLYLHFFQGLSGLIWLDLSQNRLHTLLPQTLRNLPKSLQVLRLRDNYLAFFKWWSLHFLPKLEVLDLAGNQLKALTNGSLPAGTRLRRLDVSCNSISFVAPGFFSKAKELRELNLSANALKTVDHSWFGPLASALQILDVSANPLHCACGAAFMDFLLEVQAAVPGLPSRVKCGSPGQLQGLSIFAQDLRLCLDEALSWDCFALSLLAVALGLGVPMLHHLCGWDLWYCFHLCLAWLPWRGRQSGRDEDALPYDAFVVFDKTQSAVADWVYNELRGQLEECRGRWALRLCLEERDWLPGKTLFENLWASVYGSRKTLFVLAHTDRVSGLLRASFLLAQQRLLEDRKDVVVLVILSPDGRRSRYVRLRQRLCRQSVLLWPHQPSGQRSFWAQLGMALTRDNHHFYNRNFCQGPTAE
The assay is described as follows: TLR9 inhibition reporter assay (HEK-Blue cells, SEAP reporter, ODN2006 stimulation). The note with it: HEK-Blue cells overexpressing human TLR9, SEAP reporter, ODN2006 5 nM. In a few lines: as §1

One may read the IC50 as the midpoint of a concentration-inhibition curve. `COc1cc(-c2[nH]c3sc(C4CCC(N5CCC5)CC4)nc3c2C(C)C)cn2ncnc12` (single isomer, unassigned) [Example 77, 2-(4-(azetidin-1-yl)cyclohexyl)-6-isopropyl-5-(8-methoxy-[1,2,4]triazolo[1,5-a]pyridin-6-yl)-4H-pyrrolo[3,2-d]thiazole]: the half-inhibitory concentration (IC50) on human TLR7 was 2.03 nM; at human TLR8, 21.5 nM; on human TLR9, 3270 nM.

For the compound `Cc1cc(-c2[nH]c3sc(C4CCN(C5COC5)CC4)nc3c2C(C)C)cn2ncnc12` [Example 20, 6-isopropyl-5-(8-methyl-[1,2,4]triazolo[1,5-a]pyridin-6-yl)-2-(1-(oxetan-3-yl)piperidin-4-yl)-4H-pyrrolo[3,2-d]thiazole], the IC50 came to 3.69 nM on human TLR7, 8.06 nM at human TLR8 and 16100 nM at human TLR9.

`Cc1cc(-c2[nH]c3sc(C4CCN(C(=O)CN(C)C)CC4)nc3c2C(C)C)cn2ncnc12` [Example 19, 2-(dimethylamino)-1-(4-(6-isopropyl-5-(8-methyl-[1,2,4]triazolo[1,5-a]pyridin-6-yl)-4H-pyrrolo[3,2-d]thiazol-2-yl)piperidin-1-yl)ethan-1-one]: the figures for the IC50 at human TLR7, on human TLR8 and at human TLR9 were 1.4 nM, 12 nM and 5940 nM, respectively.

On to `COc1cc(-c2[nH]c3sc(C4CCC(NCC(C)(C)O)CC4)nc3c2C(C)C)cn2ncnc12` (single isomer, unassigned) [Example 84, 1-((4-(6-isopropyl-5-(8-methoxy-[1,2,4]triazolo[1,5-a]pyridin-6-yl)-4H-pyrrolo[3,2-d]thiazol-2-yl)cyclohexyl)amino)-2-methylpropan-2-ol], for which the 50% inhibitory concentration (IC50) was 0.9 nM at human TLR7, 0.84 nM on human TLR8 and 9110 nM against human TLR9.

As for `Cc1cc2ncnn2cc1-c1[nH]c2sc(C3CCC(NC4(C)COC4)CC3)nc2c1C(C)C` (single isomer, unassigned) [Example 145, N-(4-(6-isopropyl-5-(7-methyl-[1,2,4]triazolo[1,5-a]pyridin-6-yl)-4H-pyrrolo[3,2-d]thiazol-2-yl)cyclohexyl)-3-methyloxetan-3-amine], the IC50 at human TLR7 is 60.3 nM; at human TLR8 it was 41.6 nM; against human TLR9 it was more than 50000 nM.

In the case of `Cc1c(-c2[nH]c3sc(N4CCN(C5CCOCC5)CC4)nc3c2C(C)C)cn2ncnc2c1C` [Example 287, 5-(7,8-dimethyl-[1,2,4]triazolo[1,5-a]pyridin-6-yl)-6-isopropyl-2-(4-(tetrahydro-2H-pyran-4-yl)piperazin-1-yl)-4H-pyrrolo[3,2-d]thiazole], the half-inhibitory concentration (IC50) on human TLR7 was 13.3 nM; at human TLR8 it was 0.54 nM; on human TLR9, 29200 nM.

Turning to `Cc1c(-c2[nH]c3sc(C4CCC(N5CC(F)C5)CC4)nc3c2C(C)C)cn(C)c(=O)c1C` (single isomer, unassigned) [Example 266, 5-(2-(4-(3-fluoroazetidin-1-yl)cyclohexyl)-6-isopropyl-4H-pyrrolo[3,2-d]thiazol-5-yl)-1,3,4-trimethylpyridin-2(1H)-one], the IC50 is 119 nM on human TLR7, 60.2 nM at human TLR8 and more than 50000 nM against human TLR9.

`Cc1c(-c2[nH]c3sc(N4CCNCC4)nc3c2C(C)C)cn(C)c(=O)c1C` [Example 279, 5-(6-isopropyl-2-(piperazin-1-yl)-4H-pyrrolo[3,2-d]thiazol-5-yl)-1,3,4-trimethylpyridin-2(1H)-one]: the IC50 on human TLR7 turned out to be 11 nM; at human TLR8, 1.08 nM; against human TLR9 it was 23900 nM.

In the case of `Cc1c(-c2[nH]c3sc(C(=O)N4CC(F)C4)nc3c2C(C)C)cn2ncnc2c1C` [Example 379, (5-(7,8-dimethyl-[1,2,4]triazolo[1,5-a]pyridin-6-yl)-6-isopropyl-4H-pyrrolo[3,2-d]thiazol-2-yl) (3-fluoroazetidin-1-yl)methanone], the IC50 worked out at 55.7 nM on human TLR7, 22.9 nM at human TLR8 and 28000 nM on human TLR9.

On to `COc1cc(-c2[nH]c3sc(C4CCN(CC5(C)COC5)CC4)nc3c2C(C)C)cn2ncnc12` [Example 14, 6-isopropyl-5-(8-methoxy-[1,2,4]triazolo[1,5-a]pyridin-6-yl)-2-(1-((3-methyloxetan-3-yl)methyl)piperidin-4-yl)-4H-pyrrolo[3,2-d]thiazole], for which the IC50 amounted to 1.92 nM on human TLR7, 0.94 nM on human TLR8 and 3840 nM on human TLR9.

As for `CNC(=O)CNC1CCC(c2nc3c(C(C)C)c(-c4cn5ncnc5c(C)c4C)[nH]c3s2)CC1` (single isomer, unassigned) [Example 208, 2-((4-(5-(7,8-dimethyl-[1,2,4]triazolo[1,5-a]pyridin-6-yl)-6-isopropyl-4H-pyrrolo[3,2-d]thiazol-2-yl)cyclohexyl)amino)-N-methylacetamide], the values for the IC50 on human TLR7, at human TLR8 and against human TLR9 were 1 nM, 0.52 nM and 20000 nM, respectively.
